Patent US20240400560A1, “BICYCLIC HETEROCYCLIC DERIVATIVE HAVING VIRAL GROWTH INHIBITORY ACTIVITY AND PHARMACEUTICAL COMPOSITION CONTAINING SAME” (Shionogi & Co., Ltd., priority 2021, published 2024)
Where two headings read alike, the source gives them in different places.

Experiments:
SARS-CoV-2 [1] = experiment: Inhibitory activity of cytopathic effect (CPE) in Vero E6/TMPRSS2 cells; format: cell-based
SARS-CoV-2 3CL protease = SARS-CoV-2 3CL protease (Severe acute respiratory syndrome coronavirus 2, UniProt P0DTD1); experiment: Inhibitory activity test against SARS-CoV-2 3CL proteases; format: biochemical
SARS-CoV-2 [2] = experiment: Inhibitory activity of cytopathic effect (CPE) in HEK293T/ACE2-TMPRSS2 cells; format: cell-based; conditions: Severe acute respiratory syndrome coronavirus 2, HEK-293T, 72 h, HEK293T/ACE2-TMPRSS2 cells
[3] = Severe acute respiratory syndrome coronavirus 2, VeroE6/TMPRSS2, 72 h, 50% SARS-CoV-2 infected cell death inhibitory concentration, CellTiter-Glo 2.0 after 3 days culture
[4] = read-out: IC50 (50% SARS-CoV-2 3CL protease inhibitory concentration)
[5] = Severe acute respiratory syndrome coronavirus 2, VeroE6/TMPRSS2, 50% SARS-CoV-2 infected cell death inhibitory concentration, class symbols
[6] = cultured 3 days, CellTiter-Glo 2.0 luminescence, read-out: EC50 (50% SARS-CoV-2 infected cell death inhibitory concentration)
[7] = IC50 (50% SARS-CoV-2 3CL protease inhibitory concentration)

Row | Structure (SMILES) | IC50 (SARS-CoV-2 3CL protease; [4]) [nM] | EC50 (SARS-CoV-2 [2]; [6]) [nM] | other results
1 | Cn1cnc(Cn2c(=O)c3c(Cl)cc(-c4cc5c(cc4Cl)NC(=O)C5)cc3n(Cc3cc(F)c(F)c(F)c3)c2=O)n1 [Compound I-0003] | 8.6 | – | EC50 (SARS-CoV-2 [1]; [3]): 692 nM
2 | Cc1cncc(-n2c(=O)c3c(Cl)cc(-c4cc5c(cc4Cl)NC(=O)C5)cc3n(Cc3ccc(F)c(C#N)c3)c2=O)c1 [Compound I-0004] | 9.9 | – | EC50 (SARS-CoV-2 [1]; [3]): 1160 nM
3 | Cc1cncc(-n2c(=O)c3c(Cl)cc(-c4cc(C(N)=O)ccc4Cl)cc3n(Cc3cc(F)c(F)c(F)c3)c2=O)c1 [Compound I-0007] | 19 | – | EC50 (SARS-CoV-2 [1]; [3]): 1140 nM
4 | Cc1cncc(-n2c(=O)c3c(Cl)cc(-c4cc(C(N)=O)ccc4Cl)cc3n(Cc3ccc(F)c(C#N)c3)c2=O)c1 [Compound I-0010] | < 100 | – | EC50 (SARS-CoV-2 [1]; [5]): 1000 to 10000 nM
5 | Cc1cncc(-n2c(=O)c3c(Cl)cc(-c4cc5cn[nH]c5cc4Cl)cc3n(Cc3ccc(F)c(C#N)c3)c2=O)c1 [Compound I-0011] | < 100 | – | EC50 (SARS-CoV-2 [1]; [5]): < 1000 nM
6 | Cc1cncc(-n2c(=O)c3c(Cl)cc(-c4cc(C#N)ccc4Cl)cc3n(Cc3ccc(F)c(C#N)c3)c2=O)c1 [Compound I-0013] | < 100 | – | EC50 (SARS-CoV-2 [1]; [5]): < 1000 nM
7 | Cn1cnc(Cn2c(=O)c3c(Cl)cc(-c4cc5cn[nH]c5cc4Cl)cc3n(Cc3cc(F)c(F)c(F)c3)c2=O)n1 [Compound I-0015] | < 100 | – | EC50 (SARS-CoV-2 [1]; [5]): < 1000 nM
8 | COc1cc(-c2cc(C#N)ccc2Cl)cc2c1c(=O)n(-c1cncc(C)c1)c(=O)n2Cc1ccc(F)c(C#N)c1 [Compound I-0027] | < 100 | – | EC50 (SARS-CoV-2 [1]; [5]): < 1000 nM
9 | COc1cc(-c2cc3c(cc2Cl)NC(=O)C3)cc2c1c(=O)n(-c1cncc(Cl)c1)c(=O)n2Cc1ccc(F)c(C#N)c1 [Compound I-0028] | 7.5 | – | EC50 (SARS-CoV-2 [1]; [3]): 10100 nM
10 | COc1cc(-c2cc(C(N)=O)ccc2Cl)cc2c1c(=O)n(-c1cncc(C)c1)c(=O)n2Cc1ccc(F)c(C#N)c1 [Compound I-0029] | 7.8 | – | EC50 (SARS-CoV-2 [1]; [3]): 49800 nM
11 | COc1cc(-c2cc(CO)ccc2Cl)cc2c1c(=O)n(-c1cncc(C)c1)c(=O)n2Cc1ccc(F)c(C#N)c1 [Compound I-0031] | < 100 | – | EC50 (SARS-CoV-2 [1]; [5]): < 1000 nM
12 | COc1cc(-c2cc(C#N)ccc2Cl)cc2c1c(=O)n(-c1cncc(Cl)c1)c(=O)n2Cc1ccc(F)c(C#N)c1 [Compound I-0033] | 13 | – | EC50 (SARS-CoV-2 [1]; [3]): 217 nM
13 | COc1cc(-c2cc(C(N)=O)ccc2Cl)cc2c1c(=O)n(Cc1ncn(C)n1)c(=O)n2Cc1cc(F)c(F)c(F)c1 [Compound I-0034] | < 100 | – | EC50 (SARS-CoV-2 [1]; [5]): 1000 to 10000 nM
14 | COc1nc(N2CC(F)(F)C2)cc2c1c(=O)n(-c1cnc3cc(F)ccn13)c(=O)n2-c1ccc(F)c(Cl)c1 [Compound I-1035] | – | < 100 | IC50 (SARS-CoV-2 3CL protease; [7]): < 100 nM
15 | COc1nc(N2CCC(O)(C(F)F)C2)cc2c1c(=O)n(-c1cncc(Cl)c1)c(=O)n2-c1ccc(F)c(Cl)c1 (centres unmarked) [Compound I-1036] | < 100 | < 100 | –
16 | COc1nc(N2CCC(O)(CF)C2)cc2c1c(=O)n(-c1cnc3cc(F)ccn13)c(=O)n2-c1ccc(F)c(Cl)c1 (centres unmarked) [Compound I-1037] | < 100 | < 100 | –
17 | [2H]C([2H])([2H])O[C@@H]1CCN(c2cc3c(c(OC)n2)c(=O)n(-c2cncc(OC(F)F)c2)c(=O)n3-c2ccc(F)c(F)c2)C1 [Compound I-1038] | < 100 | < 100 | –
18 | COc1nc(N2CCC3(COC3)C2)cc2c1c(=O)n(-c1cnc3cc(F)ccn13)c(=O)n2-c1ccc(F)c(Cl)c1 [Compound I-1039] | < 100 | < 100 | –
19 | COc1nc(N2CC[C@@H](O)C2)cc2c1c(=O)n(-c1cncc(OC(F)F)c1)c(=O)n2-c1ccc(F)c(F)c1 [Compound I-1040] | < 100 | < 100 | –
20 | COc1nc(NCC(F)(F)F)cc2c1c(=O)n(-c1cnc3cc(F)ccn13)c(=O)n2-c1ccc(F)c(Cl)c1 [Compound I-1041] | < 100 | < 100 | –
21 | CNc1cc2c(c(OC)n1)c(=O)n(-c1cnc3cc(F)ccn13)c(=O)n2-c1ccc(F)c(Cl)c1 [Compound I-1042] | < 100 | < 100 | –
22 | COc1nc(N2CCC(C)(O)C2)cc2c1c(=O)n(-c1cnc3cc(F)ccn13)c(=O)n2-c1ccc(F)c(Cl)c1 (centres unmarked) [Compound I-1043] | < 100 | < 100 | –

Row | Structure (SMILES) | IC50 (SARS-CoV-2 3CL protease; [4]) [nM] | EC50 (SARS-CoV-2 [2]; [6]) [nM] | other results
23 | COc1nc(N2CC[C@@H](O)C2)cc2c1c(=O)n(-c1cncc(F)c1)c(=O)n2-c1ccc(F)c(F)c1 [Compound I-1044] | < 100 | < 100 | –
24 | COc1nc(N2CC[C@@H](C(=O)N(C)C)C2)cc2c1c(=O)n(-c1cnc3cc(F)ccn13)c(=O)n2-c1ccc(F)c(Cl)c1 [Compound I-1045] | < 100 | < 100 | –
25 | COc1nc(NC2CCCC2)cc2c1c(=O)n(-c1cnc3cc(F)ccn13)c(=O)n2-c1ccc(F)c(Cl)c1 [Compound I-1046] | – | < 100 | IC50 (SARS-CoV-2 3CL protease; [7]): < 100 nM
26 | C=Cc1cc2c(c(OC)n1)c(=O)n(-c1cnc3cc(F)ccn13)c(=O)n2-c1ccc(F)c(F)c1 [Compound I-1047] | < 100 | 100 to 1000 | –
27 | O=c1c2c(=O)n(-c3cnc4cc(F)ccn34)c(=O)n(-c3ccc(F)c(Cl)c3)c2cc2n1CC[C@@H]1CCCCN21 [Compound I-1048] | 23 | – | EC50 (SARS-CoV-2 [2]; 50% SARS-CoV-2 infected cell death inhibitory concentration, CellTiter-Glo 2.0 after 3 days culture, read-out: EC50): 436 nM
28 | COCCNc1cc2c(c(OC)n1)c(=O)n(-c1cnc3cc(F)ccn13)c(=O)n2-c1ccc(F)c(Cl)c1 [Compound I-1049] | – | < 100 | IC50 (SARS-CoV-2 3CL protease; [7]): < 100 nM
29 | COC[C@H]1CCCN1c1cc2c(c(OC)n1)c(=O)n(-c1cnc3cc(F)ccn13)c(=O)n2-c1ccc(F)c(Cl)c1 [Compound I-1050] | < 100 | < 100 | –
30 | O=c1c2c(=O)n(-c3cnc4cc(F)ccn34)c(=O)n(-c3ccc(F)c(Cl)c3)c2cc2n1CC[C@H]1CCCN21 [Compound I-1051] | < 100 | 100 to 1000 | –
31 | COc1nc(N2C[C@@H](F)[C@@H](OC)C2)cc2c1c(=O)n(-c1cnc3cc(F)ccn13)c(=O)n2-c1ccc(F)c(Cl)c1 [Compound I-1052] | < 100 | < 100 | –
32 | COc1nc(NC2CCC2)cc2c1c(=O)n(-c1cnc3cc(F)ccn13)c(=O)n2-c1ccc(F)c(Cl)c1 [Compound I-1053] | < 100 | < 100 | –
33 | COc1nc(N2CCOC[C@H]2C)cc2c1c(=O)n(-c1cnc3cc(F)ccn13)c(=O)n2-c1ccc(F)c(Cl)c1 [Compound I-1054] | < 100 | < 100 | –
34 | COc1nc(N2CCC(N(C)C)C2)cc2c1c(=O)n(-c1cnc3cc(F)ccn13)c(=O)n2-c1ccc(F)c(Cl)c1 (centres unmarked) [Compound I-1055] | < 100 | < 100 | –
35 | COc1nc(N2CCC(O)(C(F)F)C2)cc2c1c(=O)n(-c1cnc3cc(F)ccn13)c(=O)n2-c1ccc(F)c(Cl)c1 (centres unmarked) [Compound I-1056] | < 100 | < 100 | –
36 | COc1nc(N2CCC(F)(F)C2)cc2c1c(=O)n(-c1cncc(C#N)c1)c(=O)n2-c1ccc(F)c(F)c1 [Compound I-1057] | < 100 | < 100 | –
37 | CCN(CC)c1cc2c(c(OC)n1)c(=O)n(-c1cnc3cc(F)ccn13)c(=O)n2-c1ccc(F)c(Cl)c1 [Compound I-1058] | < 100 | < 100 | –
38 | COc1nc(N2CC[C@@H](C(C)(C)O)C2)cc2c1c(=O)n(-c1cncc(Cl)c1)c(=O)n2-c1ccc(F)c(Cl)c1 [Compound I-1059] | < 100 | < 100 | –
39 | COc1nc(N2CCC3(CCOC3)C2)cc2c1c(=O)n(-c1cnc3cc(F)ccn13)c(=O)n2-c1ccc(F)c(Cl)c1 (centres unmarked) [Compound I-1060] | < 100 | < 100 | –
40 | COC[C@@H](C)Nc1cc2c(c(OC)n1)c(=O)n(-c1cnc3cc(F)ccn13)c(=O)n2-c1ccc(F)c(Cl)c1 [Compound I-1061] | < 100 | < 100 | –
41 | COCCCc1cc2c(c(OC)n1)c(=O)n(-c1cnc3cc(F)ccn13)c(=O)n2-c1ccc(F)c(Cl)c1 [Compound I-1062] | < 100 | < 100 | –
42 | O=c1c2c(=O)n(-c3cnc4cc(F)ccn34)c(=O)n(-c3ccc(F)c(Cl)c3)c2cc2n1CC[C@H]1CCCCN21 [Compound I-1063] | < 100 | 100 to 1000 | –
43 | COc1nc(N2CCC(O)(C(F)(F)F)C2)cc2c1c(=O)n(-c1cncc(Cl)c1)c(=O)n2-c1ccc(F)c(Cl)c1 (centres unmarked) [Compound I-1064] | < 100 | < 100 | –
